Data from patent US9388189B2, “Pyrrolotriazinone derivatives as PI3K inhibitors” (ALMIRALL, S.A., priority 2012, dated 2016).

biological target: PI3Kδ (PI3Kd) (Homo sapiens (Human), UniProt O00329); assay: PI3K HTRF enzymatic inhibition assay (cell-free), delta isoform; details: read-out: IC50 PI3Kd HTRF; recombinant PI3K delta, [ATP] 15 μM, [PIP2] 2 μM, 30 min preincubation
Sequence (O00329 whole entry, canonical isoform): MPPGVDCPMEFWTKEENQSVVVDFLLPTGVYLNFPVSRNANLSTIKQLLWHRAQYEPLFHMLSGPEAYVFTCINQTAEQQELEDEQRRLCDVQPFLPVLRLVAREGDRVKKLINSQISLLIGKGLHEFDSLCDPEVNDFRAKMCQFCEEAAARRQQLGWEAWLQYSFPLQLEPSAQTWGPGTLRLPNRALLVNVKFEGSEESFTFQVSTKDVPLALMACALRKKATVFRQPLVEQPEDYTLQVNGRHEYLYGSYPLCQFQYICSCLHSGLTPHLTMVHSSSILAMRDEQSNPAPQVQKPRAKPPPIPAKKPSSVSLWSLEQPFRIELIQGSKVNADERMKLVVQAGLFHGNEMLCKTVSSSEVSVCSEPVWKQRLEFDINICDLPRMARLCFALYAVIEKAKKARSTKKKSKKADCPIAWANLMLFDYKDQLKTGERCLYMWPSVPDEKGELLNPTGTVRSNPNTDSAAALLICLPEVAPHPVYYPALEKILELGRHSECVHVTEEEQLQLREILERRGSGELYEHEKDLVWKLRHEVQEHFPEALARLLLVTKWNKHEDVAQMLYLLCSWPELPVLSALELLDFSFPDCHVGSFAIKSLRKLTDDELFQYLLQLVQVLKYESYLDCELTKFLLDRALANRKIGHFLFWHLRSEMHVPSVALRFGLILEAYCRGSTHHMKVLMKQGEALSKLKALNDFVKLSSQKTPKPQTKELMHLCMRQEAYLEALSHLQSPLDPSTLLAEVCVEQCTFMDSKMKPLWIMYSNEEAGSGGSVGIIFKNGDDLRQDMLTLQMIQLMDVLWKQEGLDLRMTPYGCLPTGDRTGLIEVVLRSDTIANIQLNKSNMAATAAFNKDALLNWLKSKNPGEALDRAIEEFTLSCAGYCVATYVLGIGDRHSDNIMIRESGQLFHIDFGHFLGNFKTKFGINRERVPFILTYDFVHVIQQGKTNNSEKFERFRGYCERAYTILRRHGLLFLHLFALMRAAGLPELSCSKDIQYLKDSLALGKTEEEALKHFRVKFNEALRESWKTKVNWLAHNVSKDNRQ
Sequence (P27986 whole entry partner, canonical isoform): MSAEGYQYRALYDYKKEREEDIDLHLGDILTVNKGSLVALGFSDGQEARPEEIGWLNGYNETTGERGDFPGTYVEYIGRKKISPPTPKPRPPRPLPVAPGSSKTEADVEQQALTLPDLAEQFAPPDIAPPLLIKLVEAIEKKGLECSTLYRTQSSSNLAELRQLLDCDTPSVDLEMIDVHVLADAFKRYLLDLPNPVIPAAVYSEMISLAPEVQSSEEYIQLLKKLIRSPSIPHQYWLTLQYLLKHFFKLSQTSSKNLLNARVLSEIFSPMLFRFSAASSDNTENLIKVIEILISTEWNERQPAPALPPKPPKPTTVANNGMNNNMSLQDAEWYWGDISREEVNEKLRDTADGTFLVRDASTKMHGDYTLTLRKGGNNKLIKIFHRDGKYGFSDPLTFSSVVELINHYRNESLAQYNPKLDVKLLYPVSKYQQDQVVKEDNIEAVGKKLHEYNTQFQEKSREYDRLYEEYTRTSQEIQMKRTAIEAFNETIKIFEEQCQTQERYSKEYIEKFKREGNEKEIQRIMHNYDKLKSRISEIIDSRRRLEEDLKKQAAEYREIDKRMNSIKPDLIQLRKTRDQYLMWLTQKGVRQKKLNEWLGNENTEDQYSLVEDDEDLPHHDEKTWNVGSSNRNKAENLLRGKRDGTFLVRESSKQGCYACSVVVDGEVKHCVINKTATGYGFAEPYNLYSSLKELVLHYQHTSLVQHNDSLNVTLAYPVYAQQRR
Text: Compounds were screened for their ability to inhibit PI3Kα (PI3Ka), PI3Kβ (PI3Kb), PI3Kδ (PI3Kd) and PI3Kγ (PI3Kg) using a cell-free based PI3K HTRF™ assay (Millipore, ref. #33-017).
PI-3 Kinase HTRF kit (ref. #33-037) and the different PI3K recombinant isoforms (ref. #14-602, ref. #14-603, ref. #14-604, ref. #15-558 for Alpha, Beta, Delta and Gamma respectively) were purchased at Millipore (expressed in insect cells). ATP was purchased at Sigma Aldrich (ref. #A7699).
The compounds were pre-incubated with the enzyme for 30 min before starting of the catalytic reaction. [PIP2] was used at its Km. […] Time of assay and [Enzyme] were optimized to work in the linear range. Stop and Detection mixtures were used as specified in the Millipore PI-3 Kinase kit.
Reaction time and enzyme concentration in the assay will depend of each batch.
All experiments were analysed using Activity Base software from IDBS and the four-parameter log equation.

Row | SMILES | IC50 [nM]
1 | Cc1ccn2nc([C@H](C)Nc3ncnc4sccc34)n(-c3ccccc3)c(=O)c12 [Example 59, (S)-5-Methyl-3-phenyl-2-(1-(thieno[2,3-d]pyrimidin-4-ylamino)ethyl)pyrrolo[2,1-f][1,2,4]triazin-4(3H)-one] | 10
2 | Cc1ccn2nc([C@H](C)Nc3ncnc(N)c3Cc3cccc(O)c3)n(-c3ccccc3)c(=O)c12 [Example 64, (S)-2-(1-((6-Amino-5-(3-hydroxybenzyl)pyrimidin-4-yl)amino)ethyl)-5-methyl-3-phenylpyrrolo[2,1-f][1,2,4]triazin-4(3H)-one] | 16
3 | C[C@H](Nc1ncnc(N)c1C#N)c1nn2ccc(Cc3cccc(O)c3)c2c(=O)n1-c1ccccc1 [Example 74, (S)-4-Amino-6-((1-(5-(3-hydroxybenzyl)-4-oxo-3-phenyl-3,4-dihydropyrrolo[2,1-f][1,2,4]triazin-2-yl)ethyl)amino)pyrimidine-5-carbonitrile] | 36
4 | Cc1ccn2nc([C@H](C)Nc3ncnc4[nH]cc(Sc5ccc(O)cc5)c34)n(-c3ccccc3)c(=O)c12 [Example 97, (S)-2-(1-((5-((4-Hydroxyphenyl)thio)-7H-pyrrolo[2,3-d]pyrimidin-4-yl)amino)ethyl)-5-methyl-3-phenylpyrrolo[2,1-f][1,2,4]triazin-4(3H)-one] | 2
5 | Cc1ccn2nc([C@H](C)Nc3ncnc4[nH]cc(-c5cnn(CCN(C)C)c5)c34)n(-c3ccccc3)c(=O)c12 [Example 107, (S)-2-(1-((5-(1-(2-(Dimethylamino)ethyl)-1H-pyrazol-4-yl)-7H-pyrrolo[2,3-d]pyrimidin-4-yl)amino)ethyl)-5-methyl-3-phenylpyrrolo[2,1-f][1,2,4]triazin-4(3H)-one] | 2
6 | Cc1ccn2nc([C@H](C)Nc3ncnc(N)c3C(=O)N3CC[C@H](O)C3)n(-c3ccccc3)c(=O)c12 [Example 119, 3-((S)-1-((6-Amino-5-((S)-3-hydroxypyrrolidine-1-carbonyl)pyrimidin-4-yl)amino)ethyl)-8-methyl-2-phenylpyrrolo[2,1-f][1,2,4]triazin-1 (2H)-one] | 156
7 | CC(C)N1CCN(C(=O)CCCC#Cc2ccn3nc([C@H](C)Nc4ncnc(N)c4C#N)n(-c4ccccc4)c(=O)c23)CC1 [Example 128, (S)-4-Amino-6-((1-(5-(6-(4-isopropylpiperazin-1-yl)-6-oxohex-1-yn-1-yl)-4-oxo-3-phenyl-3,4-dihydropyrrolo[2,1-f][1,2,4]triazin-2-yl)ethyl)amino)pyrimidine-5-carbonitrile] | 4
8 | Cc1ccn2nc([C@H](C)Nc3ncnc(N)c3-c3cc(O)cc(NS(=O)(=O)c4ccc(F)cc4F)c3)n(-c3ccccc3)c(=O)c12 [Example 130, (S)—N-(3-(4-Amino-6-((1-(5-methyl-4-oxo-3-phenyl-3,4-dihydropyrrolo[2,1-f][1,2,4]triazin-2-yl)ethyl)amino)pyrimidin-5-yl)-5-hydroxyphenyl)-2,4-difluorobenzenesulfonamide] | 1
9 | Cc1ccn2nc([C@H](C)Nc3ncnc(N)c3-c3cncc(OCC(F)(F)F)c3)n(-c3ccccc3)c(=O)c12 [Example 132, (S)-2-(1-((6-Amino-5-(5-(2,2,2-trifluoroethoxyl)pyridin-3-yl)pyrimidin-4-yl)amino)ethyl)-5-methyl-3-phenylpyrrolo[2,1-f][1,2,4]triazin-4(3H)-one] | 2
10 | COc1cc(-c2c(N)ncnc2N[C@@H](C)c2nn3ccc(C)c3c(=O)n2-c2ccccc2)cc(C(F)(F)F)n1 [Example 137, (S)-2-(1-((6-Amino-5-(2-methoxy-6-(trifluoromethyl)pyridin-4-yl)pyrimidin-4-yl)amino)ethyl)-5-methyl-3-phenylpyrrolo[2,1-f][1,2,4]triazin-4(3H)-one] | 4
11 | Cc1ccn2nc([C@H](C)Nc3ncnc4[nH]cc(-c5ccn(CCN6CCOCC6)n5)c34)n(-c3ccccc3)c(=O)c12 [Example 144, (S)-5-Methyl-2-(1-((5-(1-(2-morpholinoethyl)-1H-pyrazol-3-yl)-7H-pyrrolo[2,3-d]pyrimidin-4-yl)amino)ethyl)-3-phenylpyrrolo[2,1-f][1,2,4]triazin-4(3H)-one] | 2

Further molecules by falling IC50, results first:

Row | IC50 [nM] | SMILES
12 | 1 | Cc1ccn2nc([C@H](C)Nc3ncnc4[nH]cc(-c5cccc(Cl)c5O)c34)n(-c3ccccc3)c(=O)c12 [Example 104, (S)-2-(1-((5-(3-Chloro-2-hydroxyphenyl)-7H-pyrrolo[2,3-d]pyrimidin-4-yl)amino)ethyl)-5-methyl-3-phenylpyrrolo[2,1-f][1,2,4]triazin-4(3H)-one]
13 | 1 | Cc1ccn2nc([C@H](C)Nc3ncnc(N)c3-c3cnn(CCO)c3)n(-c3ccccc3)c(=O)c12 [Example 116, (S)-2-(1-((6-Amino-5-(1-(2-hydroxyethyl)-1H-pyrazol-4-yl)pyrimidin-4-yl)amino)ethyl)-5-methyl-3-phenylpyrrolo[2,1-f][1,2,4]triazin-4(3H)-one]
14 | 0.8 | Cc1ccn2nc([C@H](C)Nc3ncnc4[nH]cc(-c5cc(NS(C)(=O)=O)cc(N(C)C)c5)c34)n(-c3ccccc3)c(=O)c12 [Example 76, (S)—N-(3-(Dimethylamino)-5-(4-((1-(5-methyl-4-oxo-3-phenyl-3,4-dihydropyrrolo[2,1-f][1,2,4]triazin-2-yl)ethyl)amino)-7H-pyrrolo[2,3-d]pyrimidin-5-yl)phenyl)methanesulfonamide]
15 | 0.7 | Cc1ccn2nc([C@H](C)Nc3ncnc4[nH]cc(-c5cc(O)cc(NS(=O)(=O)c6ccc(O)cc6)c5)c34)n(-c3ccccc3)c(=O)c12 [Example 125, (S)-4-Hydroxy-N-(3-hydroxy-5-(4-((1-(5-methyl-4-oxo-3-phenyl-3,4-dihydropyrrolo[2,1-f][1,2,4]triazin-2-yl)ethyl)amino)-7H-pyrrolo[2,3-d]pyrimidin-5-yl)phenyl)benzenesulfonamide]
16 | 0.5 | Cc1ccn2nc([C@H](C)Nc3ncnc(N)c3-c3cncc(C(F)(F)F)c3)n(-c3ccccc3)c(=O)c12 [Example 114, (S)-2-(1-((6-Amino-5-(5-(trifluoromethyl)pyridin-3-yl)pyrimidin-4-yl)amino)ethyl)-5-methyl-3-phenylpyrrolo[2,1-f][1,2,4]triazin-4(3H)-one]
17 | 0.4 | Cc1ccn2nc([C@H](C)Nc3ncnc4[nH]cc(Cc5cc(O)cc(F)c5)c34)n(-c3ccccc3)c(=O)c12 [Example 78, (S)-2-(1-((5-(3-Fluoro-5-hydroxybenzyl)-7H-pyrrolo[2,3-d]pyrimidin-4-yl)amino)ethyl)-5-methyl-3-phenylpyrrolo[2,1-f][1,2,4]triazin-4(3H)-one]
18 | 0.4 | Cc1ccn2nc([C@H](C)Nc3ncnc(N)c3-c3cccc(NS(=O)(=O)c4ccc(O)cc4)c3)n(-c3ccccc3)c(=O)c12 [Example 106, (S)—N-(3-(4-Amino-6-((1-(5-methyl-4-oxo-3-phenyl-3,4-dihydropyrrolo[2,1-f][1,2,4]triazin-2-yl)ethyl)amino)pyrimidin-5-yl)phenyl)-4-hydroxybenzenesulfonamide]
19 | 0.4 | CCNc1nnc(-c2c[nH]c3ncnc(N[C@@H](C)c4nn5ccc(C)c5c(=O)n4-c4ccccc4)c23)s1 [Example 120, (S)-2-(1-((5-(5-(Ethylamino)-1,3,4-thiadiazol-2-yl)-7H-pyrrolo[2,3-d]pyrimidin-4-yl)amino)ethyl)-5-methyl-3-phenylpyrrolo[2,1-f][1,2,4]triazin-4(3H)-one]
20 | 0.4 | Cc1ccn2nc([C@H](C)Nc3ncnc(N)c3-c3cncc(OC(F)F)c3)n(-c3ccccc3)c(=O)c12 [Example 127, (S)-2-(1-((6-Amino-5-(5-(difluoromethoxy)pyridin-3-yl)pyrimidin-4-yl)amino)ethyl)-5-methyl-3-phenylpyrrolo[2,1-f][1,2,4]triazin-4(3H)-one]
21 | 0.4 | COc1cc(C#N)cc(-c2c[nH]c3ncnc(N[C@@H](C)c4nn5ccc(C)c5c(=O)n4-c4ccccc4)c23)c1 [Example 147, (S)-3-Methoxy-5-(4-((1-(5-methyl-4-oxo-3-phenyl-3,4-dihydropyrrolo[2,1-f][1,2,4]triazin-2-yl)ethyl)amino)-7H-pyrrolo[2,3-d]pyrimidin-5-yl)benzonitrile]
22 | 0.3 | Cc1ccn2nc([C@H](C)Nc3ncnc4[nH]cc(C#Cc5ccccc5)c34)n(-c3ccccc3)c(=O)c12 [Example 80, (S)-5-Methyl-3-phenyl-2-(1-((5-(phenylethynyl)-7H-pyrrolo[2,3-d]pyrimidin-4-yl)amino)ethyl)pyrrolo[2,1-f][1,2,4]triazin-4(3H)-one]
23 | 0.3 | Cc1ccn2nc([C@H](C)Nc3ncnc4[nH]cc(-c5cccc(S(=O)(=O)N6CCOCC6)c5)c34)n(-c3ccccc3)c(=O)c12 [Example 85, (S)-5-Methyl-2-(1-((5-(3-(morpholinosulfonyl)phenyl)-7H-pyrrolo[2,3-d]pyrimidin-4-yl)amino)ethyl)-3-phenylpyrrolo[2,1-f][1,2,4]triazin-4(3H)-one]
24 | 0.2 | Cc1ccn2nc([C@H](C)Nc3ncnc4[nH]cc(-c5cnc6[nH]ccc6c5)c34)n(-c3ccccc3)c(=O)c12 [Example 139, (S)-2-(1-((5-(1H-Pyrrolo[2,3-b]pyridin-5-yl)-7H-pyrrolo[2,3-d]pyrimidin-4-yl)amino)ethyl)-5-methyl-3-phenylpyrrolo[2,1-f][1,2,4]triazin-4(3H)-one]
25 | 0.2 | Cc1ccn2nc([C@H](C)Nc3ncnc4[nH]cc(-c5cnn(CCCO)c5)c34)n(-c3ccccc3)c(=O)c12 [Example 140, (S)-2-(1-((5-(1-(3-Hydroxypropyl)-1H-pyrazol-4-yl)-7H-pyrrolo[2,3-d]pyrimidin-4-yl)amino)ethyl)-5-methyl-3-phenylpyrrolo[2,1-f][1,2,4]triazin-4(3H)-one]
26 | 0.2 | Cc1ccn2nc([C@H](C)Nc3ncnc4[nH]cc(-c5ccn(CC(F)(F)F)n5)c34)n(-c3ccccc3)c(=O)c12 [Example 145, (S)-5-Methyl-3-phenyl-2-(1-((5-(1-(2,2,2-trifluoroethyl)-1H-pyrazol-3-yl)-7H-pyrrolo[2,3-d]pyrimidin-4-yl)amino)ethyl)pyrrolo[2,1-f][1,2,4]triazin-4(3H)-one]
